Experimental data published in ChEMBL document CHEMBL1157539, “Thousands of chemical starting points for antimalarial lead identification” (Nature, 2010).

Test system: Plasmodium falciparum
Experiment: GSK_TCMDC: Inhibition of Plasmodium falciparum 3D7 in whole erythrocytes, using parasite LDH activity as an index of growth.
Format: functional, organism-based
Conditions: Plasmodium falciparum, 3D7

| SMILES | XC50 |
| --- | --- |
| COc1ccc2c(N/N=C/c3ccc([N+](=O)[O-])cc3)ccnc2c1 | 337 nM |
| CN(Cc1ccc(-c2ccc(C(F)(F)F)cc2)cc1)C(=O)Cn1c(CCc2cccc(F)c2F)cc(=O)c2ccc(OCC3CCCN3C)cc21 (centres undefined) | 1070 nM |
| CC(C)(C)NCCN(Cc1ccc(-c2ccc(C(F)(F)F)cc2)cc1)C(=O)Cn1c(CCc2cccc(F)c2F)nc(=O)c2c1CCC2 | 948 nM |
| CCN(CC)CCN(Cc1ccc(-c2ccc(C(F)(F)F)cc2)cc1)C(=O)Cn1c(CCc2cccc(F)c2F)nc(=O)c2cc(C)ccc21 | 936 nM |
| Cc1ccc2c(=O)cc(CCc3cccc(F)c3F)n(CC(=O)N(Cc3ccc(-c4ccc(C(F)(F)F)cc4)cc3)C3CCN(C)CC3)c2n1 | 1260 nM |
| NC1CCCN(Cc2ccc(-c3ccc(-c4nc5ccccc5[nH]4)s3)cc2)C1 (centres undefined) | 672 nM |
| COc1ccc2nccc(N(C)CC3(O)CCC(NCc4cc5c(cn4)OCCO5)CC3)c2n1 (centres undefined) | 675 nM |
| CC[C@H](N/C(=N\c1cccc(Cl)c1Cl)Nc1ccc(C#N)cc1O)c1ccccc1 | 815 nM |
| Cc1ccc2nc3ccccc3c(NCCN3CCN(C)CC3)c2c1 | 587 nM |
| COc1ccc2nccc([C@@H](O)CN3CCC(NC(=O)C(=Cc4ccc(Cl)cc4Cl)c4ccc(-c5ccccc5)cc4)CC3)c2c1 | 993 nM |
| CCn1c(-c2nonc2N)nc2c(-c3ccccc3)ncc(OCCCNCCCN3CCOCC3)c21 | 669 nM |
| CCOc1c(OC)ccc2c1CCN(CCN1CCC(CNC(=O)c3ccc(-c4ccc(C(F)(F)F)cc4)cc3)CC1)C2 | 849 nM |
| CC(C)C[C@H](Nc1ccc(C#N)c2ccccc12)C(=O)N[C@@H]1CCCc2ccccc21 | 763 nM |
| c1ccc2c(NCCCCCCCCNc3ccnc4ccccc34)ccnc2c1 | 155 nM |
| CCN(CC)CCN(Cc1ccc(-c2ccc(C(F)(F)F)cc2)cc1)C(=O)CN1C(CCc2cccc(F)c2F)=NS(=O)(=O)c2ccccc21 | 237 nM |
| CCOc1ccc(-c2nonc2NC(=O)CC(C)C)cc1OCC | 977 nM |
| COC(=O)c1c(C#N)c(OC)cc(O)c1CSC[C@@H](CN1CCCCC1)Nc1nc(-c2ccc([N+](=O)[O-])cc2)cs1 | 1270 nM |
| CS(=O)(=O)c1ccc(CNCc2ccc(-c3ccc(-c4nc5cc(C(F)(F)F)ccc5[nH]4)s3)cc2)cc1 | 156 nM |
| CCCNCc1ccc(-c2ccc(CN(CCOC)C(=O)c3ccco3)cc2)nc1 | 997 nM |
| Fc1ccc(Nc2ccnc3cc(-c4cccc(CN5CCCCC5)c4)ccc23)c(Cl)c1 | 31.8 nM |
| N=c1c2c(n(Cc3ccccc3)c3c1CCC3)CCCC2 | 867 nM |
| COc1ccc(CCc2ccc(-c3c(C)[nH]c(C)c(Cl)c3=O)cc2)cc1 | 15.2 nM |
| COc1ccc2nccc([C@@H](O)CN3CCC(NCC4COc5ccccc5O4)CC3)c2c1 (some centres undefined) | 247 nM |
| Cc1nc(C)c(-c2ccc(Oc3ccc([S+](C)[O-])cc3)cc2)c(O)c1Br (centres undefined) | 765 nM |

| SMILES | XC50 |
| --- | --- |
| O=C(Nc1cccc(-c2ccc(-c3nc4cc(C(F)(F)F)ccc4[nH]3)cc2)c1)Nc1ccc(F)c(F)c1F | 259 nM |
| Cc1cc(C)c(NC(=O)N2CCCN(CCCCCNC(=O)/C=C/c3ccc(Cl)c(Cl)c3)CC2)c(C)c1 | 968 nM |
| COc1cc2nc(N3CCC(CNC(=O)c4ccc(-c5ccc(-c6noc(C)n6)cc5C)cc4)CC3)nc(N)c2cc1OC | 215 nM |
| N#Cc1ccc(CN2CCC(Oc3ccc(NC(=O)c4cccs4)cc3Cl)C2)cc1 (centres undefined) | 402 nM |
| Cc1cc(=NN=Cc2cccc(Cl)c2)c2ccc(F)cc2[nH]1 | 240 nM |
| COc1ccc(CN2CCN(CCCCNC(=O)c3ccc(NC(=O)c4ccc(Cl)cc4)cc3)CC2)c(OC)c1 | 890 nM |
| N=c1n(Cc2ccc(Cl)cc2)c2ccccc2n1CC(O)c1ccc(Cl)c(Cl)c1 (centres undefined) | 677 nM |
| CCCOc1ccc(CCNCCCCNCCc2ccc(OCCC)c3ccccc23)c2ccccc12 | 917 nM |
| Cc1cc(Nc2nc(Nc3cccc(Cl)c3)nc3ccccc23)n[nH]1 | 287 nM |
| COc1ccc(Cc2c(Cl)nc3nc(N)nc(N)c3c2C)cc1 | 1090 nM |
| CCCCCCCN(Cc1ccc(OC(C)(C)C(=O)OCC)cc1)C(=O)Cc1ccc(F)cc1F | 1030 nM |
| CC(C)COc1ccc(Cl)cc1Nc1nc(-c2nc3ccccc3[nH]2)cs1 | 877 nM |
| O=C(NCCCCN1CCC(c2ccc(OC(F)(F)F)cc2)CC1)c1ccc(NC(=O)c2ccc(Cl)cc2)cc1 | 629 nM |
| N#Cc1cccc(Nc2nccc(Nc3ccc(Oc4ccccc4)cc3)n2)c1 | 830 nM |
| Cc1c(Oc2ccc(-n3ccnc3)cc2)ncnc1N1CCC2(CC1)CNCc1ccccc12 | 887 nM |
| Cc1c(CNCCN2CCCCC2)c(C(=O)O)c(C)n1Cc1ccc(Cl)cc1 | 416 nM |
| Cc1cc(N2CCCC2)nc(Nc2ccc(NC(=O)c3cccc(F)c3)cc2)n1 | 182 nM |
| COc1ccccc1CNC(=O)c1ccc(N2CCN(c3ccncc3)CC2)cn1 | 1360 nM |
| Cc1ccc(Nc2nccc(Nc3ccc4c(C)n[nH]c4c3)n2)cc1F | 785 nM |
| O=C(Nc1ccc(CCN2CCC(c3nc(COCC(F)(F)F)c(-c4ccccc4)o3)CC2)cc1)c1ccc(F)cc1 | 1970 nM |
| Cc1cccc2nc(-c3ccc(-c4cccc(NC(=O)Nc5ccccc5)c4)cc3)[nH]c12 | 715 nM |
| COc1ccc2nccc([C@@H](O)CN3CCC(NCc4nc5c(OCc6ccccc6)cccc5[nH]4)CC3)c2c1 | 178 nM |
| O=C(N[C@H]1CCN(Cc2ccc(OC3CCN(Cc4ccccc4)CC3)cc2)C1)c1ccc(Cl)c(Cl)c1 | 728 nM |
| CCCCCCCN1CC[C@@H](CCC(O)c2ccnc3ccc(OC)cc23)[C@@H](CC)C1 (some centres undefined) | 754 nM |

| SMILES | XC50 |
| --- | --- |
| Cc1ccc(N2C(N)=NC(N)=NC2(C)C)cc1Cl | 6.82 nM |
| Oc1ccc(CCCNc2nc(NCc3ccccc3-c3ccccc3)nc(N3CCNCC3)n2)cc1 | 713 nM |
| Cc1[nH]n(-c2cccc(C(F)(F)F)c2)c(=O)c1-c1ccc(Cl)cc1 | 856 nM |
| CCOC(=O)c1ccc2[nH]c(-c3ccc(C(=O)NCc4ccc(C(C)(C)C)cc4)cc3)nc2c1 | 847 nM |
| Cc1[nH]c(C)c(Cc2ccc(Oc3ccc(OC(F)(F)F)cc3)cc2)c(=O)c1Br | 686 nM |
| COc1c(Br)cc(Br)cc1-c1ccc(CN2C3CCCC2CCC3)[nH]1 | 1110 nM |
| Cn1cc(CN2CCC(OC(c3ccccc3)c3ccc(Cl)cc3)CC2)cn1 (centres undefined) | 839 nM |
| CC(C)(C)c1ccc(-c2csc(NC(=O)CC(c3ccccc3)c3ccccc3)n2)cc1 | 1150 nM |
| Oc1cccc(-c2cnc3ccc(NCc4ccc(F)cc4)nn23)c1 | 1080 nM |
| O=C(NCCN1CCC(NC(=O)c2ccc(-c3ccccn3)s2)CC1)c1cccc(C(F)(F)F)c1 | 861 nM |
| COCCNCc1cccc(-c2ccc3c(Nc4cc(O)c(Cl)cc4F)ccnc3c2)c1 | 114 nM |
| N#CCOc1c(C2CCN(CCCCNC(=O)c3ccc(-c4ccc(C(F)(F)F)cc4)cc3)CC2)ccc2c1CCCC2 | 762 nM |
| Oc1ccc(CCNCCCCCCNCCc2ccc(Cl)c(Cl)c2)cc1O | 726 nM |
| CCN1CCN(C(=O)NC(C(=O)N2CCCC(COc3ccc(Cc4ccccc4)cc3)C2)c2cccs2)C(=O)C1=O (centres undefined) | 479 nM |
| Cc1cccc2nc(-c3ccc(-c4cccc(NC(=O)NCc5ccc(F)cc5)c4)cc3)[nH]c12 | 146 nM |
| CN1CCN(CC(=O)Nc2ccc(-c3ccc(-c4nc5cc(C(F)(F)F)ccc5[nH]4)cc3)cc2)CC1 | 420 nM |
| CCc1c[nH]c2c(N3CCCS3(=O)=O)cc(C(=O)N[C@@H](Cc3ccccc3)[C@H](O)CNC3CCCCC3)cc12 | 774 nM |
| COc1ccc(Cn2cncc2CN(CCC(C)C)C(=O)c2ccc(Cl)nc2Cl)cc1 | 1040 nM |
| O=C(NCCN1CCCC1)c1ccc(-c2ccc(-c3nc4ccccc4[nH]3)s2)cc1 | 938 nM |
| O=C(Cc1ccc(Nc2nccc(Nc3cccc4[nH]ncc34)n2)cc1)Nc1ccc(C(F)(F)F)cc1 | 888 nM |
| Cc1cc(OCC2CCN(c3ncc(C(=O)NC4CC4)cc3Cl)CC2)ccc1F | 789 nM |
| CN1Cc2cc(NC(=O)/C=C/c3ccccc3Cl)ccc2C(C)(C)C1 | 641 nM |
| CN1CCN(c2ccc(Nc3ccnc4ccc(-c5ccccc5)cc34)cc2)CC1 | 92.9 nM |
| COc1cc(NC(=O)c2sc(-c3ccc(Cl)cc3)cc2NC(=O)CN2CCCC2)ccc1OCCN1CCCC1 | 927 nM |

| SMILES | XC50 |
| --- | --- |
| O=C(Cc1ccc[n+]([O-])c1)Nc1cccc(-c2cccc(-c3nc4cc(F)ccc4[nH]3)c2)c1 | 897 nM |
| COc1cc(Nc2nccc(N3CCC(NS(=O)(=O)c4ccc(NC(C)=O)cc4)CC3)n2)cc(OC)c1OC | 965 nM |
| CNS(=O)(=O)Cc1ccc(Nc2nccc(Nc3cccc4c3cnn4C(=O)Nc3ccccc3)n2)cc1 | 959 nM |
| COc1cc(NC(=O)c2nn(CCCN3CCC(N4CCCC4)CC3)cc2-c2ccc(Cl)c(Cl)c2)cc(OC)c1OC | 555 nM |
| COc1ccccc1CNC(=O)c1cc(C2CC2)nc2c1cnn2C(C)C | 1020 nM |
| Cc1cccc(C(=O)Nc2ccnc(N3CCCN(Cc4cccc(O)c4)CC3)c2)c1 | 1210 nM |
| Cc1ccc(CN2CCN(c3cc4c(cc3Cl)CCN4C(=O)Cc3ccc(NC(=O)c4ccc(C(F)(F)F)cc4)cc3)CC2)cc1 | 935 nM |
| CC1(C)NC(N)=NC(=N)N1OCCOc1ccc(Cc2ccccc2)cc1 | 44 nM |
| O=C1C(c2ccccc2)=C(Nc2cccc([N+](=O)[O-])c2)c2ccccc21 | 892 nM |
| CN(C)C(=O)CC(=O)NCc1c(Cl)cccc1Cl | 203 nM |
| Nc1nc(N)c2c(Oc3cccnc3)cccc2n1 | 886 nM |
| CO/C(=C\C=C\c1cc2cc(Cl)c(Cl)cc2[nH]1)C(=O)NC1CCN(CCNc2ccccc2)CC1 | 258 nM |
| N=C(Nc1ccccc1)Nc1cccc(Cc2ccc([N+](=O)[O-])cc2)n1 | 945 nM |
| O=C(Nc1cccc(Cl)c1)N(CCCn1ccnc1)Cc1csc(-c2ccc(CNCc3ccccc3)cc2)n1 | 538 nM |
| C=CCNC(=O)C(C)c1ccc2cc(OC)ccc2c1 (centres undefined) | 420 nM |
| CCN(CC)S(=O)(=O)c1ccc(Cl)c(C(=O)Nc2ccc3nc(C)sc3c2)c1 | 798 nM |
| NCc1ccc(CNCc2cccc(-c3cccc(-c4nc5cc(F)ccc5[nH]4)c3)c2)cc1 | 308 nM |
| CC(C)CNC(=O)c1ccnc(-c2ccc(CNC3Cc4ccccc4C3)cc2)c1 | 790 nM |
| CCc1c(C)nc(-n2nc(C)cc2NC(=O)c2cccc3ccccc23)[nH]c1=O | 682 nM |
| O=C(Nc1cccc(CN2CCCN(Cc3cccc(O)c3)CC2)c1)c1cc2ccccc2s1 | 365 nM |
| Cc1cc(-c2cc(-c3ccc(OCCN(C)C)cc3)[nH]c2-c2ccc3c(c2)CCC3=NO)ccn1 | 867 nM |
| CC(C)CNCc1cccc(-c2cccc(CN(C(=O)NC3CCCCC3)C3CCN(Cc4ccccc4)CC3)c2)c1 | 821 nM |
